# Data taken from patent US5476847A, “Derivatives of phosphinic acid useful as endothelin converting enzyme inhibitors” (priority 1994, dated 1995).
# Target: T1, ECE (Cavia porcellus, UniProt P97739)
# T1 construct: tissue Keystone Biologicals, Cleveland, Ohio; host or cells: frozen guinea pig lungs; lubrol PX-treated lung membranes
# T1 sequence (P97739 1-754): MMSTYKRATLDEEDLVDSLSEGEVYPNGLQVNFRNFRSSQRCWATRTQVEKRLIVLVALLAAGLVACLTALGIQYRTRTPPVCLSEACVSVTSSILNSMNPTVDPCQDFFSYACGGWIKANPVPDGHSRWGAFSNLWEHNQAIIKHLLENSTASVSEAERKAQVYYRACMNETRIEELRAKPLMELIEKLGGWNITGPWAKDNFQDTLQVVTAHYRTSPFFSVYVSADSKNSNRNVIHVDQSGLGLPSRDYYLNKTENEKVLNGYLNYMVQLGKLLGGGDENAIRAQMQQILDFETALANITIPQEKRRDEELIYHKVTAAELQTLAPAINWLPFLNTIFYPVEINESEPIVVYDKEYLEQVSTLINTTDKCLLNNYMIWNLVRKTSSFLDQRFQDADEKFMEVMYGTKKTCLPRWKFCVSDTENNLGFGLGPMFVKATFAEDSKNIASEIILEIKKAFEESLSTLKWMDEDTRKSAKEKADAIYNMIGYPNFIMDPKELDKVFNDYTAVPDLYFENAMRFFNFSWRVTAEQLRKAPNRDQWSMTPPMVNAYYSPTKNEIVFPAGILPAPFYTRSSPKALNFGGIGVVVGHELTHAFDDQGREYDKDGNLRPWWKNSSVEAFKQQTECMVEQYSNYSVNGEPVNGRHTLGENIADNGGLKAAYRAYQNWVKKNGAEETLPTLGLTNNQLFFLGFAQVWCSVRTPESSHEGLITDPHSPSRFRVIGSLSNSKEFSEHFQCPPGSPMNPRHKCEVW
# Assay: In vitro ECE assay (inhibition of [125I]BET-1 to [125I]ET-1 conversion, lubrol-treated guinea pig lung membrane)
# Assay type: biochemical
# Settings: L-GPLGM, 2 h preincubation at 4° C., 500 pM [125I]BET-1, table of examples, read-out: ECE IC50
# Excerpt: The ECE assay is based on the quantitative determination of [^125 l]ET-1 released from [^125 l]BET-1 labeled on Tyrosine-13 by binding to the membrane-bound ET receptor. […] GPLGM was also found to contain a high density of ET receptors. Thus, this preparation was utilized as a source of both ECE and a saturating concentration of ET receptors for the quantitative determination of [251l]ET-1 from the conversion of [125l ]BET-1. Under selected experimental conditions of the ECE assay, specific [125l]ET-1 bound was directly related to ECE activity. Assays were carried out in the presence of varying concentrations of test compounds to evaluate their efficacy in inhibiting ECE activity.
# Frozen guinea pig lungs (Keystone Biologicals,Cleveland, Ohio) are weighed and homogenized in 10 times gram tissue weight of solution A (50 mM Tris-HCl, pH 7.4, 0.25M sucrose, and 2 mM EDTA) using a Polytron tissue homogenizer (probe PTA-20S). Homogenization is repeated four times at speed setting seven each for 10 s and with 5-8 min intervals on ice in between homogenization. Homogenates are spun for 30 min at 2000 g (4100 rpm in an SS34 rotor or 3800 rpm in an SA-600 rotor). Supernatants containing membranes are carefully decanted and saved. Pellets are rehomogenized in solution A as described, and homogenates are spun at 2000 g for 30 min. Supernatants are removed, mixed with the supernatants from the first spin, and spun at 37000 rpm in a 45 Ti rotor (107022 g) for 60 min. Pellets containing membranes are suspended in solution B (10 mM Tris-HCl, pH 7.4, and 0.125M sucrose) using a Dounce homogenizer. Samples are divided into 1 ml fractions, rapidly frozen in a dry ice methanol bath, and stored at -80° C. All steps are carried out at 4° C.
# GPLGM fractions prepared as described above are thawed and resuspended at a concentration of 1 mg membrane protein/mL in a solution containing 0.06% lubrol PX, 50 mM Tris-HCl (pH 7.4), and 100 mM NaCl. Stir the mixture for 1 h and then spin for 1 h at 37000 rpm in a 45 Ti rotor (107022 g). Discard the supernatants and resuspend the pellets in a solution containing 50 mM Tris-HCl (pH 7.4), and 100 mM NaCl using a Dounce homogenizer, and adjust the final volume to half the original volume. Spin the homogenates for 1 h at 37000 rpm in a 45 Ti rotor (107022 g). Suspend the membrane pellets in solution B and treat as described above. All steps are performed at 4° C.
# ECE Assay: Samples of L-GPLGM containing 20 μg protein are incubated in a solution containing 100 mM Tris-HCl (pH 7), 100 mM NaCl, and 5 mg/ml BSA (Fraction V, 98-99% albumin) (Sigma Chemical Co.) at a final reaction volume of 100 μL. The ECE assay is initiated by the addition of [^125 l]BET-1 to obtain a final concentration of 500 pM. Reactions are carried out for 30 min at 37° C. Reactions are terminated by addition of 4 mL of solution C (10 mM Tris-HCl, pH 7.4, and 150 mM NaCl) at 4° C. followed by rapid filtration on Whatman GF/B glass microfiber filters. Filters are presoaked for 1 h at 4° C. in a solution containing 50 mM Tris-HCl (pH 7.4), 10 mg/mL BSA, and 0.1% sodium azide. Wash test tubes and filters four times with 4 mL of solution C at 4° C., and count radioactivity retained on the filters in a γ counter. Non-specific binding is determined in the presence of 1 μM of unlabeled ET-1 (Peninsula Laboratories, Inc., Belmont, Calif.) in the reaction mixture. All reactions are performed in duplicate.
# To test the effect of test compounds on ECE activity, ECE assays are carried out in the presence of varying concentrations of the compounds. Assays are initiated following a 2 h incubation of L-GPLGM with the compound at 4° C. ECE activity in the presence of compounds is expressed as a percentage of control ECE activity of the membrane preparation, which is determined simultaneously.
row,SMILES,IC50
1,O=C(NC(Cc1ccccc1)P(=O)(O)CC1(C(=O)N[C@@H](Cc2c[nH]c3ccccc23)C(=O)O)CCCCCC1)OCc1ccccc1 (stereo partly drawn) [Example 1C],800 nM
2,O=C(N[C@@H](Cc1ccccc1)P(=O)(O)CC1(C(=O)N[C@@H](Cc2ccc(O)cc2)C(=O)O)CCCC1)OCc1ccccc1 [Example 2],130 nM
3,O=C(N[C@@H](Cc1ccccc1)P(=O)(O)CC1(C(=O)N[C@@H](Cc2c[nH]c3ccccc23)C(=O)O)CCCC1)c1ccccc1 [Example 6.2B],250 nM
4,NCc1ccc(C(=O)N[C@@H](Cc2ccccc2)P(=O)(O)CC2(C(=O)N[C@@H](Cc3c[nH]c4ccccc34)C(=O)O)CCCC2)cc1 [Example 6],90 nM
5,O=C(NC(Cc1ccc(C(=O)N2CCOCC2)cc1)P(=O)(O)CC1(C(=O)N[C@@H](Cc2c[nH]c3ccccc23)C(=O)O)CCCC1)OCc1ccccc1 (stereo partly drawn) [Example 7],50 nM
6,CC(C)CC(CP(=O)(O)C(CC(C)C)NC(=O)[C@H](CCCCNC(=O)OCc1ccccc1)NS(C)(=O)=O)C(=O)N[C@@H](Cc1c[nH]c2ccccc12)C(=O)O (stereo partly drawn) [Example 10B],1400 nM
7,CC(C)C(CP(=O)(O)C(Cc1ccccc1)NC(=O)[C@H](CCC(N)=O)NC(=O)OCc1ccccc1)C(=O)N[C@@H](Cc1c[nH]c2ccccc12)C(=O)O (stereo partly drawn) [Example 10C],200 nM
8,CC(C)CC(CP(=O)(O)C(CCCCO)NC(=O)[C@H](CC(C)C)NS(C)(=O)=O)C(=O)N[C@@H](Cc1c[nH]c2ccccc12)C(=O)O (stereo partly drawn) [Example 10D],150 nM

# Other lines, results leading:
row,IC50,SMILES
1,115 nM,COc1ccc(CC(NC(=O)OCc2ccccc2)P(=O)(O)CC2(C(=O)N[C@@H](Cc3c[nH]c4ccccc34)C(=O)O)CCCC2)cc1 (stereo partly drawn) [Example 1A]
2,400 nM,O=C(NC(Cc1ccc(OCc2ccccc2)cc1)P(=O)(O)CC1(C(=O)N[C@@H](Cc2c[nH]c3ccccc23)C(=O)O)CCCC1)OCc1ccccc1 (stereo partly drawn) [Example 1B]
3,190 nM,O=C(N[C@@H](Cc1ccccc1)P(=O)(O)CC1(C(=O)N[C@@H](Cc2c[nH]c3ccccc23)C(=O)O)CCCC1)OCc1ccccc1 [Example 1]
4,50 nM,COc1ccc(CC(NC(=O)[C@H](CCCCNC(=O)OCc2ccccc2)NS(C)(=O)=O)P(=O)(O)CC2(C(=O)N[C@@H](Cc3c[nH]c4ccccc34)C(=O)O)CCCC2)cc1 (stereo partly drawn) [Example 3A]
5,55 nM,CS(=O)(=O)N[C@@H](CCCCNC(=O)OCc1ccccc1)C(=O)NC(Cc1ccc(O)cc1)P(=O)(O)CC1(C(=O)N[C@@H](Cc2c[nH]c3ccccc23)C(=O)O)CCCC1 (stereo partly drawn) [Example 3B]
6,55 nM,CS(=O)(=O)N[C@@H](CCCCNC(=O)OCc1ccccc1)C(=O)NC(Cc1ccc2ccccc2c1)P(=O)(O)CC1(C(=O)N[C@@H](Cc2c[nH]c3ccccc23)C(=O)O)CCCC1 (stereo partly drawn) [Example 3C]
7,55 nM,CC(C)CC(NC(=O)[C@H](CCCCNC(=O)OCc1ccccc1)NS(C)(=O)=O)P(=O)(O)CC1(C(=O)N[C@@H](Cc2c[nH]c3ccccc23)C(=O)O)CCCC1 (stereo partly drawn) [Example 3D]
8,119 nM,CS(=O)(=O)N[C@@H](CCCCNC(=O)OCc1ccccc1)C(=O)N[C@@H](Cc1ccccc1)P(=O)(O)CC1(C(=O)N[C@@H](Cc2ccc(O)cc2)C(=O)O)CCCC1 [Example 4]
9,40 nM,COc1ccc(CC(NC(=O)[C@H](CCCCN)NS(C)(=O)=O)P(=O)(O)CC2(C(=O)N[C@@H](Cc3c[nH]c4ccccc34)C(=O)O)CCCC2)cc1 (stereo partly drawn) [Example 5A]
10,100 nM,CS(=O)(=O)N[C@@H](CCCCN)C(=O)NC(Cc1ccc(O)cc1)P(=O)(O)CC1(C(=O)N[C@@H](Cc2c[nH]c3ccccc23)C(=O)O)CCCC1 (stereo partly drawn) [Example 5B]
11,100 nM,CS(=O)(=O)N[C@@H](CCCCN)C(=O)N[C@@H](Cc1ccccc1)P(=O)(O)CC1(C(=O)N[C@@H](Cc2ccc(O)cc2)C(=O)O)CCCC1 [Example 5C]
12,290 nM,NC(=O)c1ccc(CC(NC(=O)OCc2ccccc2)P(=O)(O)CC2(C(=O)N[C@@H](Cc3c[nH]c4ccccc34)C(=O)O)CCCC2)cc1 (stereo partly drawn) [Example 8A]
13,490 nM,O=C(NC(Cc1ccc(C(=O)O)cc1)P(=O)(O)CC1(C(=O)N[C@@H](Cc2c[nH]c3ccccc23)C(=O)O)CCCC1)OCc1ccccc1 (stereo partly drawn) [Example 8B]
14,85 nM,O=C(NC(Cc1ccc(O)cc1)P(=O)(O)CC1(C(=O)N[C@@H](Cc2c[nH]c3ccccc23)C(=O)O)CCCC1)OCc1ccccc1 (stereo partly drawn) [Example 8]
15,55 nM,CC(C)CC(CP(=O)(O)C(CC1CCCC1)NC(=O)[C@H](CCCCNC(=O)OCc1ccccc1)NS(C)(=O)=O)C(=O)N[C@@H](Cc1c[nH]c2ccccc12)C(=O)O (stereo partly drawn) [Example 10E]

# Same assay, conditions: L-GPLGM, table of additional compounds, read-out: IC50 (in vitro ECE inhibition activity)
row,SMILES,IC50
1,"CC(C)CC(CP(=O)(O)C(Cc1ccc2ccccc2c1)NC(=O)OCc1ccccc1)C(=O)N[C@@H](Cc1c[nH]c2ccccc12)C(=O)O (stereo partly drawn) [Cbz, 2-naphthylmethyl, H, iso-butyl]",300 nM
2,"CC(C)C(CP(=O)(O)C(Cc1ccccc1)NC(=O)OCc1ccccc1)C(=O)N[C@@H](Cc1c[nH]c2ccccc12)C(=O)O (stereo partly drawn) [Cbz, C6 H5CH2, H, iso-propyl]",1300 nM
3,"CC(C)CC(CP(=O)(O)C(CCCCO)NC(=O)OCc1ccccc1)C(=O)N[C@@H](Cc1c[nH]c2ccccc12)C(=O)O (stereo partly drawn) [Cbz, HO(CH2)4, H, iso-butyl]",200 nM
4,"CC(C)CC(CP(=O)(O)C(CCCCN)NC(=O)OCc1ccccc1)C(=O)N[C@@H](Cc1c[nH]c2ccccc12)C(=O)O (stereo partly drawn) [Cbz, NH 2(CH2)4, H, iso-butyl]",400 nM
5,"CC(C)CC(CP(=O)(O)C(CC1CCCC1)NC(=O)OCc1ccccc1)C(=O)N[C@@H](Cc1c[nH]c2ccccc12)C(=O)O (stereo partly drawn) [Cbz, cyclopentylmethyl, H, iso-butyl]",1000 nM

# Continued, values first:
row,IC50,SMILES
1,500 nM,"O=C(NC(Cc1ccc2ccccc2c1)P(=O)(O)CC1(C(=O)N[C@@H](Cc2c[nH]c3ccccc23)C(=O)O)CCCC1)OCc1ccccc1 (stereo partly drawn) [Cbz, 2-naphthylmethyl, R3 + R4 = (CH2)4]"
2,190 nM,"O=C(NC(Cc1ccccc1)P(=O)(O)CC1(C(=O)N[C@@H](Cc2c[nH]c3ccccc23)C(=O)O)CCCC1)OCc1ccccc1 (stereo partly drawn) [Cbz, C6 H5CH2, R3 + R4 = (CH2)4]"
